Legend:
MLKL [1] = target: T1, MLKL (Homo sapiens, UniProt Q8NB16); test: MLKL degradation assay in HepG2 cell line (western blot); assay type: cell-based; parameters: endogenous in cells; host or cells: HepG2 or HaCaT; conditions: cell line not given; for Degradation assay (Degradation %) 1 μM: compound 1 μM; for Degradation assay (Degradation %) 10 μM: compound 10 μM
T1 sequence (Q8NB16 1-471): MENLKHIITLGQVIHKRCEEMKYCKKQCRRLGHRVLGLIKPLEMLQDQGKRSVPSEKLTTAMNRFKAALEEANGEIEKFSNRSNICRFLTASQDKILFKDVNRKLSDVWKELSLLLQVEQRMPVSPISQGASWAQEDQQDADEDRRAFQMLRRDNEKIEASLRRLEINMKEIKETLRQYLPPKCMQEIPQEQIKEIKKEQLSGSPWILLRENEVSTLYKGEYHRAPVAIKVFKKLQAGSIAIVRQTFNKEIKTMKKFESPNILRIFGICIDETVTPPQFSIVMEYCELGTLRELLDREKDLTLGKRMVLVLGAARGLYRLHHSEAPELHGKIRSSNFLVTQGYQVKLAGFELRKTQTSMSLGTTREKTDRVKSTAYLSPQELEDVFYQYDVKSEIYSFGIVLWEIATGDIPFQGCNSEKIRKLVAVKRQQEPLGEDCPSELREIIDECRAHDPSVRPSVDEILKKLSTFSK
In short: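 Degradation is judged from MLKL band intensity on immunoblots of HepG2 lysates taken after 20-24 hours of compound at final 1 or 10 μM.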

MLKL [2] = target: T1, MLKL; test: Measurement of binding affinity with MLKL receptor (competitive binding assay, Kd); parameters: made in house; host or cells: HEK 293 cell line (T7 phage in E. coli BL21-derived host is also described)
In short: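 Kd from an immobilized-ligand competition format: the DNA-tagged kinase from HEK 293 expression is eluted and quantified by qPCR. Compounds added from 111× DMSO stocks, final DMSO 0.9%.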

FADD−/− Jurkat cells = test: Necroptosis inhibition assay, TNF-α-induced necroptosis (CellTiter-Glo 2.0); assay type: cell-based, human; conditions: TNF-α 15 ng/mL, FADD−/− Jurkat cells; for Necroptosis inhibition assay (Rescue %) 1 μM: compound 1 μM; for Necroptosis inhibition assay (Rescue %) 10 μM: compound 10 μM
In short: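 Tested at three fixed concentrations (0.1, 1, 10 μM final) with a 30-minute room-temperature preincubation ahead of 15 ng/mL TNF-α challenge lasting 20 to 24 hours. Inhibition rate and cytotoxicity derive from ATP luminescence.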

Compound | Degradation assay (Degradation %) 1 μM (MLKL [1]) [%] | Degradation assay (Degradation %) 10 μM (MLKL [1]) [%] | Kd (MLKL [2]) [pM] | Necroptosis inhibition assay (Rescue %) 1 μM (FADD−/− Jurkat cells) [%] | Necroptosis inhibition assay (Rescue %) 10 μM (FADD−/− Jurkat cells) [%]
Nc1ncc(-c2cnn(C3CCN(CCC4CCN(CC5CCN(C(=O)Cc6cccc(NC7=CC(=O)N(C8CCC(=O)NC8=O)C7=O)c6)CC5)CC4)CC3)c2)nc1C(=O)O[C@@H](C(=O)Nc1ccc(F)cc1)c1ccccc1 (stereo partly drawn) [TDH-510, (R)-2-((4-fluorophenyl)amino)-2-oxo-1-phenylethyl 3-amino-6-(1-(1-(2-(1-((1-(2-(3-((1-(2,6-dioxopiperidin-3-yl)-2,5-dioxo-2,5-dihydro-1H-pyrrol-3-yl)amino)phenyl)acetyl)piperidin-4-yl)methyl)piperidin-4-yl)ethyl)piperidin-4-yl)-1H-pyrazol-4-yl)pyrazine-2-carboxylate] | 79.77 | 84.86 | 470 | 28.63 | −91.81
COc1ccc(C(=O)N2CCC(C(=O)N3CCC(CN4CCC(CCN5CCC(n6cc(-c7cnc(N)c(C(=O)O[C@@H](C(=O)Nc8ccc(F)cc8)c8ccccc8)n7)cn6)CC5)CC4)CC3)CC2)cc1N1CCC(=O)NC1=O [TDH-511, (R)-2-((4-fluorophenyl)amino)-2-oxo-1-phenylethyl 3-amino-6-(1-(1-(2-(1-((1-(1-(3-(2,4-dioxotetrahydropyrimidin-1(2H)-yl)-4-methoxybenzoyl)piperidine-4-carbonyl)piperidin-4-yl)methyl)piperidin-4-yl)ethyl)piperidin-4-yl)-1H-pyrazol-4-yl)pyrazine-2-carboxylate] | 81.08 | 91.73 | 240 | 32.32 | 46.16
COc1ccc(C(=O)N2CCC(C(=O)N3CCC(OCCN4CCC(CN5CCC(n6cc(-c7cnc(N)c(C(=O)O[C@@H](C(=O)Nc8ccc(F)cc8)c8ccccc8)n7)cn6)CC5)CC4)CC3)CC2)cc1N1CCC(=O)NC1=O [TDH-512, (R)-2-((4-fluorophenyl)amino)-2-oxo-1-phenylethyl 3-amino-6-(1-(1-((1-(2-((1-(1-(3-(2,4-dioxotetrahydropyrimidin-1(2H)-yl)-4-methoxybenzoyl)piperidine-4-carbonyl)piperidin-4-yl)oxy)ethyl)piperidin-4-yl)methyl)piperidin-4-yl)-1H-pyrazol-4-yl)pyrazine-2-carboxylate] | 51.41 | 80.48 | 740 | 24.43 | 52.33
Nc1ncc(-c2cnn(C3CCN(CC4CCN(CCC5CCN(c6cc7c(cc6F)C(=O)N(C6CCC(=O)NC6=O)C7=O)CC5)CC4)CC3)c2)nc1C(=O)O[C@@H](C(=O)Nc1ccc(F)cc1)c1ccccc1 (stereo partly drawn) [TDH-513, (R)-2-((4-fluorophenyl)amino)-2-oxo-1-phenylethyl 3-amino-6-(1-(1-((1-(2-(1-(2-(2,6-dioxopiperidin-3-yl)-6-fluoro-1,3-dioxoisoindolin-5-yl)piperidin-4-yl)ethyl)piperidin-4-yl)methyl)piperidin-4-yl)-1H-pyrazol-4-yl)pyrazine-2-carboxylate] | 46.49 | 75.71 | 3900 | 14.47 | −61.68
Nc1ncc(-c2cnn(C3CCN(CCC4CCN(CC5CCN(c6cc7c(cc6F)C(=O)N(C6CCC(=O)NC6=O)C7=O)CC5)CC4)CC3)c2)nc1C(=O)O[C@@H](C(=O)Nc1ccc(F)cc1)c1ccccc1 (stereo partly drawn) [TDH-514, (R)-2-((4-fluorophenyl)amino)-2-oxo-1-phenylethyl 3-amino-6-(1-(1-(2-(1-((1-(2-(2,6-dioxopiperidin-3-yl)-6-fluoro-1,3-dioxoisoindolin-5-yl)piperidin-4-yl)methyl)piperidin-4-yl)ethyl)piperidin-4-yl)-1H-pyrazol-4-yl)pyrazine-2-carboxylate] | 55.53 | 84.44 | 900 | 24.14 | −67.06

— US20240252488A1 (KOREA RESEARCH INSTITUTE OF CHEMICAL TECHNOLOGY, priority 2020, published 2024)
